This note sets out measurements from ChEMBL document CHEMBL1148200, “Kulokekahilide-2, a cytotoxic depsipeptide from a cephalaspidean mollusk Philinopsis speciosa” (J Nat Prod, 2004).

One experiment concerns P388. Description: Cytotoxicity against mouse P388 cells. Type of experiment: functional, cell-based.
The subject of the next experiment is SK-OV-3. Description: Cytotoxicity against human SKOV3 cells. Type of experiment: functional, cell-based.
In a further experiment the test system is MDA-MB-435. As to the kind of experiment: Cytotoxicity against human MDA-MB-435 cells. Type of experiment: functional, cell-based.
The next experiment has as its system A10. Description: Cytotoxicity against rat A10 cells. The class given is cell-based.

Structures are written as SMILES.

Turning to `C/C=C(\C)[C@H]1OC(=O)[C@H](C)NC(=O)[C@H]([C@@H](C)CC)NC(=O)CN(C)C(=O)[C@H](Cc2ccccc2)N(C)C(=O)[C@@H](C)NC(=O)[C@@H](CC(C)C)OC(=O)/C(C)=C/C[C@H](O)[C@@H]1C`, the IC50 (usually the concentration that inhibits the measured activity by half) with P388 was determined as 4.2 nM; with SK-OV-3, 7.5 nM; with MDA-MB-435, 14.6 nM; in the experiment on A10, 59.1 nM.
